In patent EP0880540B1, “17-BETA-CYCLOPROPYL(AMINO/OXY) 4-AZA STEROIDS AS ACTIVE INHIBITORS OF TESTOSTERONE 5-ALPHA-REDUCTASE AND C17-20-LYASE” (Aventis Pharmaceuticals Inc., priority 1996, dated 1997):

Legend:
[1] = molecular target: T1, cynomolgus monkey C17,20 lyase (Macaca fascicularis, UniProt Q2XVA1); test: In vitro C17,20 lyase assay, testicular microsomes; assay type: biochemical; conditions: mean of duplicates
T1 construct: microsomal preparations of the enzyme from testicular tissue; from tissue; host or cells: cynomolgus monkey testes, microsomes
T1 sequence (Q2XVA1 1-508): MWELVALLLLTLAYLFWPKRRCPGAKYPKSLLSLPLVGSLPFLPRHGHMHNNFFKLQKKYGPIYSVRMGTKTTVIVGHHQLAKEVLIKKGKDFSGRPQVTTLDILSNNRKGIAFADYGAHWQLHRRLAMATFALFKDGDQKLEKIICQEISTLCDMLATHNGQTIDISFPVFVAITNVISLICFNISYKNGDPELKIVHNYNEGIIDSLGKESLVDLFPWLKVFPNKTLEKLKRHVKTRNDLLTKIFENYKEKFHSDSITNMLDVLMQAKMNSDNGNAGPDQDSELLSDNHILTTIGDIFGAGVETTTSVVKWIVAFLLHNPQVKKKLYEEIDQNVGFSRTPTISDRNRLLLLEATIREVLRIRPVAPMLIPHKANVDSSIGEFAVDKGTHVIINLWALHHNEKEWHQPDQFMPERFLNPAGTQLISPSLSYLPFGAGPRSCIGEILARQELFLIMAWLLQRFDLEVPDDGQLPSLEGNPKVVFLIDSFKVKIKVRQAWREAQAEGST
Method: In vitro C17,20 lyase assays: Compounds were tested for inhibition of cynomolgus monkey C17,20 lyase in vitro using microsomal preparations of the enzyme from testicular tissue. Testes were removed from anesthetized animals and flash frozen in liquid nitrogen. Microsomes were isolated as described in Schatzman et al., Anal. Biochem. 175, 219-226 (1988). The compound to be tested was dissolved in dimethyl sulfoxide and diluted in 0.05 M potassium phosphate buffer, pH 7.4, to give the desired concentrations of test compound, in an amount which contributed 0.1% v/v DMSO to the total assay volume. Assays contained 0.05 M potassium phosphate buffer, pH 7.4, an NADPH regenerating system (1 mM NADPH, 5 mM glucose-6-phosphate, 1 IU/mL glucose-6-phosphate dehydrogenase), test compound, substrate and microsomal protein in a total volume of 0.2 mL. Control assays contained all components, including dimethyl sulfoxide, but not test ccmpound. All assays were performed in duplicate. The test compound was incubated with 20 to 62 µg/mL microsomal protein, buffer, and the NADPH regenerating system described above at 34°C for 0 or 40 minutes. Aliquots of 180 µL were then removed and assayed for enzyme activity by addition to 7-[^3H]-17α-hydroxypregnenolone (11.2 mCi/mmole; 0.2 µCi per assay) plus unlabeled 17α-hydroxypregnenolone dissolved in DMSO, contributing 2.5% v/v to the final assay mix, and phosphate buffer to give a total substrate concentration of 0.05 µM (=Km) per assay and subsequent incubation at 34°C for 6 minutes. Each assay was terminated by addition of 5 mL of chloroform:methanol (2:1). Carrier steroids representing substrates and produces (17α-hydroxypregnenolone, dehydroepiandrosterone, and androst-5-ene-3β,17β-diol) and 0.8 mL of distilled, deionized water were also added at this time. The steroids were extracted by the method of Moore and Wilson (Methods in Enzymol., eds. O. Malley, B.W. and Hardman, J.G. 36, 1975, pp. 466-474). The organic phase containing the steroids was evaporated using nitrogen gas, the residues dissolved in 18% tetrahydrofuran (v/v) in hexane, and the steroids were separated by HPLC on a Si60 (5 µm) column (250 x 4 mm) using a gradient of 18-22% tetrahydrofuran (v/v) in hexane. Radioactivity in the steroid peaks was measured using a Radiomatic® Model ES or Model A515 Flo-One® detector.
The enzyme activity for each assay was calculated from the percent conversion of substrate to products, and the results were expressed as percent inhibition of control. The following results were obtained, wherein the values indicated are the mean of duplicate determinations: Table 1: […]

[2] = tested on: PC-82 Human Tumor; test: PC-82 human tumor growth in nude mice; assay type: in vivo, male nude mice; conditions: MDL 103432 and MDL 105831 50 mg/kg B.I.D., MDL 15910 15 mg/kg B.I.D., per os; for Tumor Growth in PC-82 Human Tumor in Male Nude Mice, Day 7 / Tumor Growth in PC-82 Human Tumor in Male Nude Mice, Day 15 / Tumor Growth in PC-82 Human Tumor in Male Nude Mice, Day 21 / Tumor Growth in PC-82 Human Tumor in Male Nude Mice, Day 28 / Tumor Growth in PC-82 Human Tumor in Male Nude Mice, Day 35 / Tumor Growth in PC-82 Human Tumor in Male Nude Mice, Day -4: corrected group mean; for Tumor Growth in PC-82 Human Tumor in Male Nude Mice, Day -4: Day -4 (before treatment); for Δv/Δt (day 35-day 7): average tumor growth over 28 days from corrected group means
Description: As described in van Steenbrugge, G.J. et al., J. Urol 131: 812-817 (1984) van Steenbrugge G.J. et al., The Prostate 11: 195-210 (1987) and Redding, T.W. et al., Cancer Research 52, 2538-2544 (1992), male nude mice (Hsd:athymic, Nude-nu) were obtained from Harlan Sprague Dawley. Mice were housed in sterilized micro-isolators and fed autoclaved ABLE® rodent chow (Purina Mills Inc., St. Louis, MO) and deionized water, adlibitum. Tumor-donating mice were first anesthetized using sodium pentobarbital and then sacrificed by cervical dislocation. The tumor was subsequently excised and placed in a petri dish containing ice-cold Hanks balanced salt solution. Tumors were cut into 2-3 mm cubes for implantation. Recipient animals were first anesthetized with 50 mg/kg pentobarbital, then implanted, by use of a trocar, with tumor fragments (one per mouse) in the dorsal area. Animals were separated into two control groups, one with vehicle alone and the other castrated, and the treatment groups, where n is the number of animals in each group.
Animals were selected for treatment groups based on tumor size. Each test compound was prepared as a solution or suspension in a lecithin vehicle (L-α-phosphatidylcholine type XV-E) containing methylparaben and propylparaben at a dose volume of 10 cc/kg. Animals were treated for 42 days by oral gavage (per os) seven days per week. Twenty-four hours after the last treatment the animals were euthenized by CO2 and tumors were removed and weighed. During the study period, mice were weighed and palpated weekly for tumors. In Table 5, average tumor growth is determined from the corrected group means over a 28 day period after treatment was started. […] The following animal data was deleted before computation of the corrected mean data in Table 5, Fig. 1: animals 4 and 44; Fig. 2: animals 10, 38 and 42; Fig. 3: Animal 39; Fig. 4: Animals 8, 9 and 49; Fig. 5: Animals 37 and 40 and 41.
Table 5 illustrates the average tumor growth in animals treated with 4-aza-17β-(cyclopropyloxy)-5α-androstan-3-one (MDL 103432; 50 mg/kg B.I.D.) 4-aza-17β-(cyclopropylamino)-androst-5(6)-en-3-one (MDL 105831; 50 mg/kg B.I.D.) and flutamide (MDL 15,910; 15 mg/kg B.I.D.), a known androgen receptor antagonist. The average growth rate of each tested compound relative to the vehicle and castrated controls is consistent with the in vivo inhibition of androgens.

| SMILES | inhibition at 0.1 µM ([1]; preincubation 0 min) | inhibition at 0.1 µM ([1]; preincubation 40 min) | inhibition at 1 µM ([1]; preincubation 0 min) | inhibition at 1 µM ([1]; preincubation 40 min) | inhibition at 10 µM ([1]; preincubation 0 min) | inhibition at 10 µM ([1]; preincubation 40 min) | Tumor Growth in PC-82 Human Tumor in Male Nude Mice, Day 7 [2] | Tumor Growth in PC-82 Human Tumor in Male Nude Mice, Day 15 [2] | Tumor Growth in PC-82 Human Tumor in Male Nude Mice, Day 21 [2] | Tumor Growth in PC-82 Human Tumor in Male Nude Mice, Day 28 [2] | Tumor Growth in PC-82 Human Tumor in Male Nude Mice, Day 35 [2] | Tumor Growth in PC-82 Human Tumor in Male Nude Mice, Day -4 [2] | Δv/Δt (day 35-day 7) [2] |
| --- | --- | --- | --- | --- | --- | --- | --- | --- | --- | --- | --- | --- | --- |
| CC12CCC3C(CC[C@H]4NC(=O)CCC34C)C1CC[C@@H]2OC1CC1 (stereo partly drawn) [MDL 103,432, 17β-Cyclopropyloxy-4-aza-5α-androstan-3-one] | 23.4% | 20.2% | 33% | 54.2% | 68.3% | 80.2% | 180.2 mm^3 | 220,2 mm^3 | 288.2 mm^3 | 385.9 mm^3 | 427.4 mm^3 | 122.2 mm^3 | 8.83 mm^3/day |
| C[C@]12CC[C@H]3[C@@H](CC=C4NC(=O)CC[C@@]43C)[C@@H]1CC[C@@H]2NC1CC1 [MDL 105,831, 17β-Cyclopropylamino-4-aza-androst-5-en-3-one] | 11.4% | 24.6% | 26% | 53.8% | 69.6% | 100% | 188.3 mm^3 | 254.3 mm^3 | 304.3 mm^3 | 530.7 mm^3 | 531.1 mm^3 | 124.9 mm^3 | 12.24 mm^3/day |
